Results as given in patent publication US11046710B2, “Sulfonamide compounds” (DAIICHI SANKYO COMPANY, LIMITED, priority 2016, dated 2021).

target: human TNAP (Homo sapiens (Human), UniProt P05186); experiment: Inhibitory test of TNAP activity (pNPP substrate, p-nitrophenol production); type: biochemical; settings: human TNAP from transfected COS1 culture supernatant, 60 minutes at room temperature
Protocol: COS1 cells (DS Pharma Biomedical Co., Ltd.) were transfected with human TNAP (OriGene Technologies, Inc.) using Lipofectamine LTX & Plus reagent (Invitrogen Corp.). On the next day, the medium was replaced with a fresh medium, and the cells were cultured in an incubator for 3 days. After 3 days, the culture supernatant was collected and concentrated by centrifugation at 5000 G for 30 minutes using Amicon 14, 10^4 cut (Merck Millipore). The concentrated culture supernatant was dialyzed against 5 L of 50 mM Tris/200 mM NaCl/1 mM MgCl2/20 μM ZnCl2 twice and used as an enzyme source (enzyme solution). The substrate pNPP (ProteoChem Inc.) was adjusted to 3.1 mM with Milli-Q water, and a solution of each test compound dissolved in dimethyl sulfoxide (DMSO; Wako Pure Chemical Industries, Ltd.) by 6 serial dilutions at a 5-fold common ratio from 100 μM, or DMSO was added thereto at a final concentration of 1% by volume. The enzyme solution adjusted to 2 μg/mL with an assay buffer (200 mM Tris/2 mM MgCl2/0.04 mM ZnCl2/0.01% Tween 20) was added in the same amount of the substrate solution and incubated at room temperature for 60 minutes. Then, the absorbance (ABS: 405 nm) was measured using a microplate reader (model plus 384, Molecular Devices, LLC), and the concentration of produced p-nitrophenol was calculated.

Sequence of human TNAP (P05186 18-524): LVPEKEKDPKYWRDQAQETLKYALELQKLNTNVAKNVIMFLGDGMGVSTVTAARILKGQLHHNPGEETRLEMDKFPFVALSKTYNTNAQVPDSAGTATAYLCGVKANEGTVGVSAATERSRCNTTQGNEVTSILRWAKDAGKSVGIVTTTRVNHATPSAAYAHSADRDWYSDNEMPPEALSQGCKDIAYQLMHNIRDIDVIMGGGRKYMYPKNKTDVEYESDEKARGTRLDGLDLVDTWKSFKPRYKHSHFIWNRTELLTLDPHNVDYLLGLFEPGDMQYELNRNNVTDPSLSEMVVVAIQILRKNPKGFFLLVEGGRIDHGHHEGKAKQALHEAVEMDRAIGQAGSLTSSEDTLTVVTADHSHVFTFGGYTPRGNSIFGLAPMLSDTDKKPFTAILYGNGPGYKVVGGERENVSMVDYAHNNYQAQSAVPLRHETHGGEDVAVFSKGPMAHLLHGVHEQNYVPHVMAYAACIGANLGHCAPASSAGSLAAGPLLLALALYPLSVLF

Row | SMILES | IC50
1 | COc1ccc(Cl)cc1S(=O)(=O)Nc1cnc2c(c1)C(=O)N1C[C@H](O)C[C@@H]1CO2 [Example 35, 5-chloro-N-[(8R,9aR)-8-hydroxy-5-oxo-8,9,9a,10-tetrahydro-5H,7H-pyrido[3,2-f]pyrrolo[2,1-c][1,4]oxazepin-3-yl]-2-methoxybenzenesulfonamide] | 0.9 nM
2 | O=C1c2cc(NS(=O)(=O)c3cc(F)ccc3OC(F)(F)F)cnc2OC[C@H]2C[C@H](O)CN12 [Example 34, 5-fluoro-N-[(8S,9aR)-8-hydroxy-5-oxo-8,9,9a,10-tetrahydro-5H,7H-pyrido[3,2-f]pyrrolo[2,1-c][1,4]oxazepin-3-yl]-2-(trifluoromethoxy)benzenesulfonamide] | 1.6 nM
3 | COc1ccc(Cl)cc1S(=O)(=O)Nc1cnc2c(c1)-c1ccnn1CCO2 [Example 7, 5-chloro-N-(5,6-dihydropyrazolo[1,5-d]pyrido[3,2-f][1,4]oxazepin-10-yl)-2-methoxybenzenesulfonamide] | 6.5 nM
4 | COc1ccc(Cl)cc1S(=O)(=O)Nc1cnc2c(c1)-c1ccnn1[C@H](C)CO2 [Example 17, 5-chloro-2-methoxy-N-[(5R)-5-methyl-5,6-dihydropyrazolo[1,5-d]pyrido[3,2-f][1,4]oxazepin-10-yl]benzenesulfonamide] | 6.9 nM
5 | O=C1[C@@H](O)C[C@H]2COc3ncc(NS(=O)(=O)c4cc(Cl)ccc4OC(F)(F)F)cc3CN12 [Example 56, 5-chloro-N-[(8S,9aS)-8-hydroxy-7-oxo-8,9,9a,10-tetrahydro-5H,7H-pyrido[3,2-f]pyrrolo[2,1-c][1,4]oxazepin-3-yl]-2-(trifluoromethoxy)benzenesulfonamide] | 1.4 nM
6 | COc1ccc(Cl)cc1S(=O)(=O)Nc1cnc2c(c1)C(=O)N1C[C@@H](F)C[C@@H]1CO2 [Example 44, 5-chloro-N-[(8S,9aR)-8-fluoro-5-oxo-8,9,9a,10-tetrahydro-5H,7H-pyrido[3,2-f]pyrrolo[2,1-c][1,4]oxazepin-3-yl]-2-methoxybenzenesulfonamide] | 0.8 nM
7 | CCOc1ncc(F)cc1S(=O)(=O)Nc1cnc2c(c1)-c1ccnn1[C@@H](C)CO2 [Example 24, 2-ethoxy-5-fluoro-N-[(5S)-5-methyl-5,6-dihydropyrazolo[1,5-d]pyrido[3,2-f][1,4]oxazepin-10-yl]pyridine-3-sulfonamide] | 2.3 nM
8 | COc1ccc(Cl)cc1S(=O)(=O)Nc1cnc2c(c1)CN1C(=O)OC[C@H]1CO2 [Example 58, 5-chloro-2-methoxy-N-[(9aR)-7-oxo-9a,10-dihydro-5H, 9H-[1,3]oxazolo[4,3-c]pyrido[3,2-f][1,4]oxazepin-3-yl]benzenesulfonamide] | 3.8 nM
9 | COc1ccc(Cl)cc1S(=O)(=O)Nc1cnc2c(c1)C(=O)N1CC(F)(F)C[C@@H]1CO2 [Example 45, 5-chloro-N-[(9aR)-8,8-difluoro-5-oxo-8,9,9a,10-tetrahydro-5H,7H-pyrido[3,2-f]pyrrolo[2,1-c][1,4]oxazepin-3-yl]-2-methoxybenzenesulfonamide] | 2 nM
10 | COc1ccc(Cl)cc1S(=O)(=O)Nc1cnc2c(c1)CN1C(=O)[C@@H](O)C[C@H]1CO2 [Example 54, 5-chloro-N-[(8S,9aS)-8-hydroxy-7-oxo-8,9,9a,10-tetrahydro-5H,7H-pyrido[3,2-f]pyrrolo[2,1-c][1,4]oxazepin-3-yl]-2-methoxybenzenesulfonamide] | 1.1 nM
11 | CCOc1ccc(F)cc1S(=O)(=O)Nc1cnc2c(c1)CN1C(=O)COC[C@H]1CO2 [Example 61, 2-ethoxy-5-fluoro-N-[(10aS)-7-oxo-7,8,10a,11-tetrahydro-5H,10H-[1,4]oxazino[3,4-c]pyrido[3,2-f][1,4]oxazepin-3-yl]benzenesulfonamide] | 0.6 nM
12 | COc1ccc(Cl)cc1S(=O)(=O)Nc1cnc2c(c1)C(=O)N1C[C@H](O)C[C@H]1CO2 [Example 29, 5-chloro-N-[(8R,9aS)-8-hydroxy-5-oxo-8,9,9a,10-tetrahydro-5H,7H-pyrido[3,2-f]pyrrolo[2,1-c][1,4]oxazepin-3-yl]-2-methoxybenzenesulfonamide] | 7.1 nM
